According to patent US11672814B2, “NGNA compositions and methods of use” (priority 2008, dated 2023):

Tested on: influenza A (H1N1)
Test: Influenza virus mouse model, feed supplemented with N5G
Assay type: in vivo
Excerpt: The overall purpose of the study was to determine whether the N5G nutritional supplement has the ability to have significant impact on clinical disease outcomes caused by influenza virus in a mouse animal model.
The experimental design included adherence to a strict feeding schedule, which included 30 days of acclimation of mice to a defined base feed (AIN-93M) provided by Purina TestDiet, Inc. Control animals remained continuously fed with the defined base feed, while the experimental mouse group was fed with the base feed supplemented with 0.35% of N5G.
Experimental and control mouse groups were infected intranasally with 107.5 TCID50 influenza A (H1N1) with each mouse receiving 5iL of viral inoculum per nostril. The experimental parameters followed during the study were: 1) mouse weight changes; 2) food intake changes; 3) clinical signs of disease; 4) lung tissue pathology; 5) lung consolidation scores; 6) changes in viral loads.
Overall, the experimental design was executed without any major obstacles. As expected, there was minor occasional wasting of feed in some cages (mice chewed on feed which was dropped on the bottom of the cage). In every instance noted on daily observations, the residual feed was weighed, but it was excluded in any statistical calculations as well as in the calculation of baseline feed intake.
As expected, all influenza infected mice developed clinical signs of disease starting 2 days post infection. Clinical signs included: 1) ruffled fur, 2) inactivity, 3) hunching, 4) death, 5) weight loss, and 6) loss of appetite.
Clinical signs 1-4 were scored by two independent observers using a scale of 0-5. The cumulative scores were plotted and statistically analyzed. Statistical analyses were performed using SAS v.9.1.3. An analysis of variance (ANOVA) of a repeated measures design was calculated in a split-plot arrangement of treatments, with the treatment group on the main plot, and the subplot including day and treatment by day interactions. Interaction of pairwise comparisons of least square means was performed with a pairwise t-test with pre-planned comparisons. This statistical methodology was used for all comparisons in the study.
D. The most important aspect of influenza infections is the resultant lung immunopathology. Typically, viral replication as well as infiltration of lymphocytes causes substantial damage to lung tissues. In fact, it is believed that infiltration of lymphocytes and their negative effects on lungs tissues is the most important parameter of influenza-related morbidity and mortality in humans. Consequently, particular care was taken to examine the tissues of mice for signs of histopathological changes. The following evaluation criteria were utilized to score these changes: 1) Lung consolidation scores (LCS); 2) Histopathological scores (HS). LCS were rated as follows: grade 1: no plum coloration; grade 2: minimum plum coloration; grade 3: medium plum coloration; grade 4: maximum plum coloration. HS were rated as follows: Grade 0: no overt histological change; grade 1+: only bronchial/bronchiolar and/or peri-bronchial/bronchiolar/vascular changes; grade 2+: 1-10% pulmonary parenchyma affected; grade 3+: 11-30% pulmonary parenchyma affected; grade 4:+: 31-50% pulmonary parenchyma affected; grade 5+: greater than 50% pulmonary parenchyma affected.

Question: With `O=C(CO)N[C@H]1[C@H]([C@H](O)[C@H](O)CO)O[C@](O)(C(=O)O)C[C@@H]1O` [NGNA, n-glycolylneuraminic acid] as the molecule, how does the “Viral titers from lung homogenates” value (mice, 2 days post infection, treated and untreated) read?
Answer: The value was “less than 100 plaque forming units (PFU) per 250iL of homogenate”.

Question: What about the “Clinical signs 1-4 scores (ruffled fur, inactivity, hunching, death), treated versus untreated” value (mice, base feed with 0.35% N5G, days 6-8 post infection, FIG. 3) of the same molecule?
Answer: The value was “Statistically significant differences”.

Question: What about the “Histopathological scores, treated versus untreated” value (mice, day 6 post infection, grades 0 to 5+, FIG. 7) of the same molecule?
Answer: The value was “statistically significant difference”.

Question: What about the “Viral titers from lung homogenates, treated versus untreated” value (mice, days 2, 4, 6, 8 and 21 post infection, one mouse per group per time point) of the same molecule?
Answer: The value was “No significant differences”.

Question: And the “% change in mouse weights, untreated versus treated” value (mice, days 3-9 post infection, FIG. 5)?
Answer: Its value is “highly significant reduction in body weights was observed in the control mouse group”.

Question: And the “% daily feed intake” value (mice, days 5-6 post infection, FIG. 4, group with the loss not stated)?
Answer: Its value is “statistically significant loss of appetite”.

Question: What about the “Lung consolidation scores, treated versus untreated” value (mice, grades 1-4, FIG. 6) of the same molecule?
Answer: The value was ““trend” toward a healthier status of treated versus untreated mice. However, there results were not statistically significant”.

Question: What about the “Effect on ameliorating clinical symptoms and adverse pathological implication of influenza infection” value (mouse experimental model, overall conclusion) of the same molecule?
Answer: Its value is “significant effect”.
